In brackets after ≈: the same amount, converted by molar mass. Activity calls are given as the source filed them. The calls are words filed in the database; no cut-off is given here.
Columns and labels:
[1] = tested on: SK-MEL; assay: Cytotoxicity against Homo sapiens (human) SK-MEL cells assessed as cell viability up to 25 ug/ml after 48 hr by neutral red assay; format: functional, cell-based
[2] = tested on: Candida albicans; assay: Antifungal activity against Candida albicans ATCC 90028 after 24 hr by NCCLS broth microdilution method; format: functional; details: ATCC 90028, 24 h
[3] = tested on: BT-549; assay: Cytotoxicity against Homo sapiens (human) BT549 cells assessed as cell viability up to 25 ug/ml after 48 hr by neutral red assay; format: functional, cell-based
[4] = tested on: Vero; assay: Cytotoxicity against Chlorocebus aethiops (African green monkey) Vero cells assessed as cell viability up to 25 ug/ml after 48 hr by neutral red assay; format: cell-based; details: chlorocebus sabaeus
[5] = tested on: Candida albicans; assay: Antifungal activity against Candida albicans clinical isolate at 2000 ug/ml by agar diffusion method; format: functional; details: read-out: IZ
[6] = tested on: Colletotrichum gloeosporioides; assay: Antifungal activity against Colletotrichum gloeosporioides assessed as growth inhibition at 30 uM after 72 hr by broth microdilution method; format: functional; details: read-out: GI
[7] = target: T1, Nitric oxide synthase, inducible (Mus musculus) (UniProt P29477); assay: Inhibition of iNOS in Mus musculus (mouse) RAW264.7 cells assessed as inhibition of LPS-induced nitrite production up to 25 ug/ml incubated for 30 min prior to LPS challenge measured after 24 hr by Griess assay relative to vehicle-treated control; format: cell-based
T1 sequence (whole entry): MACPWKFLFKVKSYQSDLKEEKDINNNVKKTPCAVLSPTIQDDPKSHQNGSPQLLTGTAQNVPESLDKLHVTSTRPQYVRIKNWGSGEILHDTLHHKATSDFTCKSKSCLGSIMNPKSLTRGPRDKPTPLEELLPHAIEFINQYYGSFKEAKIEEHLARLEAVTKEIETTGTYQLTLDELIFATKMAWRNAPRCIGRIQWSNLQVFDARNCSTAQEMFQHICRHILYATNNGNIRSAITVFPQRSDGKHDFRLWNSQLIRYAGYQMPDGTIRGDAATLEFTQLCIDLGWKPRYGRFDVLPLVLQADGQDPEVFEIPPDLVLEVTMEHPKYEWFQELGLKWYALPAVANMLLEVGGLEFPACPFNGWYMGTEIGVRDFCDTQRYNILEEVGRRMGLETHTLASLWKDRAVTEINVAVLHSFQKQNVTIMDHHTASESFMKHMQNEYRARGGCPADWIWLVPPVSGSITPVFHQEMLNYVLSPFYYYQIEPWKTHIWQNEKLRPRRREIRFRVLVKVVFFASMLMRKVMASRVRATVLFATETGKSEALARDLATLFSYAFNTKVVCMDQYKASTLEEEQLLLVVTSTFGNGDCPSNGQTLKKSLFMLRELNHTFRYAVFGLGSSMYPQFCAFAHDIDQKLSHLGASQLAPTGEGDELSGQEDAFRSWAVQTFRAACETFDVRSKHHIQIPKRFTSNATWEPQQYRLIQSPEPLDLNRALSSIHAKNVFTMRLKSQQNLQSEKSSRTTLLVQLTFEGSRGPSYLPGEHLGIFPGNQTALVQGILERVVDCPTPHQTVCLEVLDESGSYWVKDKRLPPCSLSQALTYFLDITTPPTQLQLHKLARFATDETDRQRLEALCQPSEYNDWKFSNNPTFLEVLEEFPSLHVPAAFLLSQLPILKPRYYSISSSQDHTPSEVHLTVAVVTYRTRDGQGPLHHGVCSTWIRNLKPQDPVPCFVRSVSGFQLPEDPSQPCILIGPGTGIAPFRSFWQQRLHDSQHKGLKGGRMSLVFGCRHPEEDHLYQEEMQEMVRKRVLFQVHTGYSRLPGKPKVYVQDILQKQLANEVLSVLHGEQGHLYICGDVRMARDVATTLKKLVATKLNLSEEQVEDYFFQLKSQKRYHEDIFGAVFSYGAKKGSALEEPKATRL

[8] = tested on: Fusarium oxysporum; assay: Antifungal activity against Fusarium oxysporum assessed as growth inhibition at 30 uM after 72 hr by broth microdilution method; format: functional; details: read-out: GI
[9] = tested on: Botrytis cinerea; assay: Antifungal activity against Botryotinia fuckeliana at 0.3 to 30 uM after 48 to 72 hr by broth microdilution method; format: functional, organism-based
[10] = tested on: Pichia kudriavzevii; assay: Antifungal activity against Pichia kudriavzevii NRRL Y-7179 after 24 hr by NCCLS broth microdilution method; format: functional; details: NRRL Y-7179, 24 h
[11] = tested on: KB; assay: Cytotoxicity against Homo sapiens (human) KB cells assessed as cell viability up to 25 ug/ml after 48 hr by neutral red assay; format: functional, cell-based
[12] = tested on: HL-60; assay: Antioxidant activity in PMA-stimulated Homo sapiens (human) HL60 cells assessed as inhibition of intracellular ROS generation up to 25 ug/ml incubated for 30 min prior to PMA stimulation measured after 30 min by DCFH-DA assay relative to vehicle-treated control; format: functional, cell-based
[13] = tested on: Cyberlindnera jadinii; assay: Antifungal activity against Cyberlindnera jadinii NRRL Y-900 after 24 hr by NCCLS broth microdilution method; format: functional; details: Williopsis jadinii, NRRL Y-900, 24 h
[14] = tested on: Candida albicans; assay: Antifungal activity against Candida albicans clinical isolate after 24 hr by NCCLS broth microdilution method; format: functional
[15] = Cytotoxicity against Sus scrofa (pig) LLC-PK11 cells assessed as cell viability up to 25 ug/ml after 48 hr by neutral red assay; format: cell-based; details: llc-pk11, 48 h
[16] = tested on: HL-60; assay: Cytotoxicity against Homo sapiens (human) HL60 cells up to 25 ug/ml; format: cell-based
[17] = tested on: Colletotrichum fragariae; assay: Antifungal activity against Colletotrichum fragariae at 0.3 to 30 uM after 48 to 72 hr by broth microdilution method; format: functional, organism-based
[18] = tested on: Candida parapsilosis; assay: Antifungal activity against Candida parapsilosis NRRL Y-12696 after 24 hr by NCCLS broth microdilution method; format: functional; details: Lodderomyces parapsilosis, NRRL Y-12696, 24 h
[19] = tested on: RAW264.7; assay: Cytotoxicity against Mus musculus (mouse) RAW264.7 cells up to 25 ug/ml; format: cell-based
[20] = tested on: Candida albicans; assay: Antifungal activity against Candida albicans NRRL Y-12983 after 24 hr by NCCLS broth microdilution method; format: functional; details: NRRL Y-12983, 24 h
[21] = tested on: SW1353; assay: Inhibition of PMA-induced NFkappaB activity in Homo sapiens (human) SW1353 cells up to 25 ug/ml incubated for 30 min followed by PMA induction for 8 hr by luciferase reporter gene assay; format: cell-based
[22] = tested on: Nakaseomyces glabratus; assay: Antifungal activity against Candida glabrata clinical isolate after 24 hr by NCCLS broth microdilution method; format: functional
[23] = target: Transcription factor Sp1 (Homo sapiens, UniProt P08047); assay: Inhibition of Sp1 (unknown origin) up to 25 ug/ml by luciferase reporter gene assay
[24] = tested on: Candida tropicalis; assay: Antifungal activity against Candida tropicalis NRRL Y-12968 at 2000 ug/ml by agar diffusion method; format: functional; details: read-out: IZ
[25] = tested on: SK-OV-3; assay: Cytotoxicity against Homo sapiens (human) SKOV3 cells assessed as cell viability up to 25 ug/ml after 48 hr by neutral red assay; format: functional, cell-based
[26] = target: T2, Nitric oxide synthase, inducible (Mus musculus, UniProt P29477); assay: Inhibition of iNOS in Mus musculus (mouse) RAW264.7 cells assessed as inhibition of LPS-induced nitrite production incubated for 30 min prior to LPS challenge measured after 24 hr by Griess assay; format: cell-based
T2 sequence (P29477 whole entry): T1 sequence (whole entry)

[27] = Inhibition of PMA-induced NFkappaB activity in Homo sapiens (human) SW1353 cells incubated for 30 min followed by PMA induction for 8 hr by luciferase reporter gene assay; format: cell-based
[28] = tested on: RAW264.7; assay: Cytotoxicity against Mus musculus (mouse) RAW264.7 cells; format: cell-based
[29] = tested on: HL-60; assay: Antioxidant activity in PMA-stimulated Homo sapiens (human) HL60 cells assessed as inhibition of intracellular ROS generation incubated for 30 min prior to PMA stimulation measured after 30 min by DCFH-DA assay; format: functional, cell-based
[30] = tested on: HL-60; assay: Cytotoxicity against Homo sapiens (human) HL60 cells; format: cell-based
[31] = tested on: Candida tropicalis; assay: Antifungal activity against Candida tropicalis NRRL Y-12968 after 24 hr by NCCLS broth microdilution method; format: functional; details: NRRL Y-12968, 24 h
[32] = tested on: Diaporthe ampelina; assay: Antifungal activity against Diaporthe ampelina assessed as growth inhibition at 30 uM after 144 hr by broth microdilution method; format: functional; details: read-out: GI

Transcription factor Sp1, sequence (P08047 whole entry, the tested form may be a part): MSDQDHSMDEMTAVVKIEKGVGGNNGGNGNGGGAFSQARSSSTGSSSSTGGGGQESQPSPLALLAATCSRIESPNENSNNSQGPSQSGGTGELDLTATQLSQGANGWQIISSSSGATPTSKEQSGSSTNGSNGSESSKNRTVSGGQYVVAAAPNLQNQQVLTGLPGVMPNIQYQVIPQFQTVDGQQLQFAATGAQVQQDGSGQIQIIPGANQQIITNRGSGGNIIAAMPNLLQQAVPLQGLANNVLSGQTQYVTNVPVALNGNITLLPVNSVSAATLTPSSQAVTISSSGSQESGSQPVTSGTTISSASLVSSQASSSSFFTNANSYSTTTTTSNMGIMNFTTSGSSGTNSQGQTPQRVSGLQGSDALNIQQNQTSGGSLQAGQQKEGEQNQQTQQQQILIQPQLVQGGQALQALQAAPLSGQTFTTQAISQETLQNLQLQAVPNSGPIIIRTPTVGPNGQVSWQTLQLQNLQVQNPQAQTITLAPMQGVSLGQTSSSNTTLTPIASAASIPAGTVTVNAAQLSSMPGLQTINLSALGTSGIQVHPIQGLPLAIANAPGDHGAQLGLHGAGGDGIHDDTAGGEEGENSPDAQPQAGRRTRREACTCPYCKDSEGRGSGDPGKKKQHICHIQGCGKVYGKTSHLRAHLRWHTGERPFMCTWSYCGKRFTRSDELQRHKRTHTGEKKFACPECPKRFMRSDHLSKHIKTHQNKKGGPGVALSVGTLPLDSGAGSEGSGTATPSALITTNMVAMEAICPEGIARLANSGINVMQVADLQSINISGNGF

Compound | Activity [1] | MIC [2] [µg/mL] | Activity [3] | Activity [4] | zone of inhibition at 2000 µg/mL [5] [mm] | Activity [9] | MIC [10] [µg/mL] | Activity [11] | inhibition [12] | MIC [13] [µg/mL] | MIC [14] [µg/mL] | Activity [15] | Activity [17] | MIC [18] [µg/mL] | Activity [19] | MIC [20] [µg/mL] | inhibition (INH) [23] | zone of inhibition at 2000 µg/mL [24] [mm] | Activity [25] | IC50 [26] [µM] | further results
O=C(N/N=C/c1ccc(Br)cc1)c1ccc(F)cc1 | inactive | 500 (≈ 1560 µM) | inactive | Not Active | 9 | inactive | 500 (≈ 1560 µM) | inactive | inactive | 1000 (≈ 3110 µM) | 500 (≈ 1560 µM) | Not Active | inactive | 1000 (≈ 3110 µM) | Non-toxic | 500 (≈ 1560 µM) | Not Active | 9 | inactive |  | inhibition of growth at 30 µM [6]: 22%; inhibition [7]: inactive; inhibition of growth at 30 µM [8]: 35%; Activity [16]: Non-toxic; inhibition [21]: inactive; MIC [22]: 250 µg/mL (≈ 778 µM)
C=C1C(=O)O[C@@H]2C3O[C@]3(C)CC/C=C(\C)CC[C@@H]12 (stereo not given in full) |  |  |  |  |  |  |  |  |  |  |  |  |  |  |  |  |  |  |  | 1.61 | IC50 [27]: 0.68 µg/mL (≈ 2.74 µM); IC50 [28]: 13 µg/mL (≈ 52.4 µM)
COc1ccc(C2OC(c3ccc(F)cc3)=NN2C(C)=O)cc1O (stereo not given) | inactive | 500 (≈ 1510 µM) | inactive | Not Active | 9 | inactive | 500 (≈ 1510 µM) | inactive |  | 250 (≈ 757 µM) | 250 (≈ 757 µM) | Not Active | inactive | 500 (≈ 1510 µM) | Non-toxic | 500 (≈ 1510 µM) | Not Active | 9 | inactive | 12.1 | IC50 [27]: 0.75 µg/mL (≈ 2.27 µM); IC50 [29]: 0.9 µg/mL (≈ 2.72 µM); MIC [22]: 250 µg/mL (≈ 757 µM); IC50 [30]: 20 µg/mL (≈ 60.5 µM); MIC [31]: 500 µg/mL (≈ 1510 µM)
O=C(N/N=C/c1ccc(Br)s1)c1ccc(F)cc1 | inactive | 250 (≈ 764 µM) | inactive | Not Active | 9 | inactive | 250 (≈ 764 µM) | inactive | inactive | 250 (≈ 764 µM) | 250 (≈ 764 µM) | Not Active | inactive | 250 (≈ 764 µM) | Non-toxic | 125 (≈ 382 µM) | Not Active | 9 | inactive | > 76.4 | inhibition of growth at 30 µM [6]: 32%; inhibition of growth at 30 µM [8]: 40%; inhibition [21]: inactive; MIC [22]: 250 µg/mL (≈ 764 µM); IC50 [30]: 16 µg/mL (≈ 48.9 µM); MIC [31]: 250 µg/mL (≈ 764 µM); inhibition of growth at 30 µM [32]: 91%
O=C(N/N=C/c1ccc(O)cc1)c1ccc(F)cc1 | inactive | 500 (≈ 1940 µM) | inactive | Not Active | 9 |  | 500 (≈ 1940 µM) | inactive | inactive | 500 (≈ 1940 µM) |  | Not Active |  | 500 (≈ 1940 µM) |  | 500 (≈ 1940 µM) | Not Active | 9 | inactive | > 96.8 | inhibition [7]: inactive; Activity [16]: Non-toxic; inhibition [21]: inactive; IC50 [28]: > 25 µg/mL; MIC [31]: 500 µg/mL (≈ 1940 µM)

Reference: ChEMBL document CHEMBL3046330, “Synthesis and biological activity of hydrazidehydrazones and their corresponding 3-acetyl-2,5-disubstituted-2,3-dihydro-1,3,4-oxadiazoles” (Med Chem Res, 2012)
